Assay type in all cases: cell-based, human
Assay [1] relates to Capan-2 cells. Put plainly: Growth curves of Capan-2 cells transfected with p21 siRNA or negative control siRNA. As for the experimental part: (§1) Human pancreatic cancer cell lines BxPC-3, PANC-1, and Capan-2 were obtained from the American Type Culture Collection (Manassas, Va.), and cultured in RPMI, Dulbecco's Modified Medium, or McCoy's 5A medium, respectively. All media were supplemented with 10% fetal bovine serum, 1.2% sodium bicarbonate, and 0.25% antibiotics (5000 units/ml penicillin, 5 μg/ml streptomycin and 10 μg/ml neomycin). OGF was purchased from Sigma-Aldrich (St. Louis, Mo.), dissolved in sterile water, and used at a final concentration of 10^−6 M.
(§2) The p21-targeted siRNAs were obtained from Santa Cruz Biotechnology, and negative control siRNAs were purchased from Ambion (Ambion, Inc., Austin, Tex.). For transfection, 2×10^5 cells per well were seeded in 6-well plates containing 1 ml of media without antibiotics. For each well, 1 μl of siRNA stock (20 μM) was mixed with 175 μl of serum-free media. Two μl of Oligofectamine reagent (Invitrogen, Carlsbad, Calif.) was added to prewashed cells in each well, making the final concentration for siRNA approximately 20 nM. Cells were incubated for 4 hours at 37° C. prior to the addition of OGF. Eighteen hours later, 1 ml fresh complete media with or without OGF was added to the cultures; media and OGF were replaced daily. At the indicated time points, cells were collected for growth curves or Western blotting.

Assay [2] has as its system SCC-4 cells. Put plainly: Growth curves of SCC-4 cells transfected with p16 siRNA or negative control siRNA. The protocol: The SCC-1 (UM-SCC-1) cell line was obtained from the University of Michigan Cancer Research Laboratory, and CAL-27 and SCC-4 cells were obtained from the American Type Culture Collection (Manassas, Va.). SCC-1 and CAL-27 cells were cultured in DMEM media, whereas SCC-4 cells were grown in 1:1 Hams F-12 DMEM media. All media was supplemented with 10% fetal bovine serum (HyClone, Logan, Utah), 1.2% sodium bicarbonate, and 5000 units/ml penicillin, 5 μg/ml streptomycin and 10 μg/ml neomycin. OGF was purchased from Sigma-Aldrich (St. Louis, Mo.), dissolved in sterile water, and used at a final concentration of 10^−6 M.
The p16-targeted siRNAs (antisense:5′ […]-3′; sense (SEQ ID NO:5): 5′ […]-3′(SEQ ID NO:6) were obtained as ready-annealed, purified duplex probes (Invitrogen, Carlsbad, Calif.). For transfection, 2×10^5 cells per well were seeded in 6-well plates containing 1 ml of serum-free media without antibiotics. In each well, 20 nM of p16-siRNA or control siRNA solutions in serum-free media were added. Cells were incubated for 4 h at 37° C. prior to the addition of OGF. Cultures were incubated for additional 20 h, and then 1 ml fresh complete media either lacking or containing OGF was added. At the indicated time points, cells were collected for growth curves or Western blotting. Three or more independent experiments were conducted. The control siRNAs were purchased from Ambion.

The subject of assay [3] is PANC-1 cells. Description: Growth curves of PANC-1 cells transfected with p21 siRNA or negative control siRNA. As to conditions: for decrease of growth: PANC-1 cells transfected with negative control siRNAs. The protocol: as §1, §2
Assay [4] concerns Cdk2 kinase activity. Description: Immunoprecipitation and H1 kinase assay (Cdk2 kinase activity) in BxPC-3 cells. As for the experimental part:
To quantify expression levels or kinase activity, the optical density of each band was determined by densitometry and analyzed by QuickOne (Bio-Rad Laboratories). Each value was normalized to β-actin from the same blot. To report the changes due to OGF treatment, we calculated the fold increase by dividing the normalized value from the OGF treated samples by the normalized value of control samples at each time point; thus, increases due to OGF have values greater than one, and decreases due to OGF have values less than one. For all Western blot analyses, 3 or more independent experiments were performed.
To immunoprecipitate protein complexes, cell extracts were prepared as follows: 2×10^6 cells per sample were rinsed in cold PBS followed by lysis in 200 μl immunoprecipitation buffer (1% NP-40, 10 mM HEPES (pH 7.5), 200 mM NaCl, 5 mM EDTA, 50 mM NaF, 0.2 mM sodium orthovanidate, 1 mM phenylmethyl sulfonyl fluoride, 2 mM dithiothreitol), 1× Halt™ protease inhibitorcocktail (Pierce, Rockford, Ill.)). For each immunoprecipitation reaction mixture, a total of 500 μg of protein extract was used. To each sample, 50 μl of protein A beads (Santa Cruz Biotechnology) were added and incubated at 40° C. for 30 min with rotation. Beads were removed by centrifugation at 14000 rpm for 15 s. The lysates were then subjected to immunoprecipitation using 10 μl of polyclonal antibody against Cdk2 and incubated at 40° C. for 1.5 hours with rotation, followed by addition of 20 μl of protein A beads as the immune complex binding agent.
Samples were further incubated at 40 C for 1 hour with rotation. Beads were pelleted by centrifugation at 14000 rpm for 15 s, washed three times with 500 μl ice-cold immunoprecipitation wash buffer (1% NP-40, 50 mM HEPES, 150 mM NaCl, 1 mM EDTA, 1 mM dithiothreitol), and followed by two washes with ice-cold H1 kinase buffer (50 mM HEPES (pH 7.5), 10 mM MgCl2, 10 mM MnCl2, 1 mM dithiothreitol). Immunoprecipitates were incubated with 10 μCi γ^32P-ATP, and 1 μg of histone H1 (Roche) as the substrate for Cdk2. After incubation for 30 min at 30° C., with occasional mixing, the reaction was stopped by the addition of 2× sample loading buffer (Santa Cruz Biotechnology). Proteins were separated by a 12% SDS-PAGE gel, and the Cdk2 kinase activity pattern was visualized by autoradiography of phosphorylated H1.

Assay [5] concerns BxPC-3 cells. Description: Flow cytometry cell cycle distribution, synchronized BxPC-3 cells. As to conditions: 10^-6 M OGF, 21 hours. The protocol:
For flow cytometry, cells were synchronized with 67 ng/ml nocodazole (Sigma-Aldrich) for 24 hours, followed by three washes with complete media. Cells were released from growth arrest by addition of complete media or OGF supplemented complete media. Synchronized cells were treated with 10^-6 M OGF for 21 hours, harvested with 0.25% trypsin-EDTA (Mediatech, Herndon, Va.) and fixed with 70% ethanol at −20° C. for up to 7 days before DNA analysis.
DNA content was obtained by incubating cells in PBS containing propidium iodide (0.1 mg/ml) and RNase A (0.02 mg/ml) for 15 minutes at 220 C. Fluorescence was measured and analyzed using a BD Biosciences FACScan flow cytometer (San Diego, Calif.) and Modfit Software (Topsham, Me.).
Background: A flow cytometer gives signals particle by particle.

As for [Met^5]-enkephalin [OGF], in assay [1] (Capan-2 cells transfected with negative control siRNA, 48, 72, and 96 hours), the effect on growth result was “did depress growth”. Besides, the figures for the “effect on growth of cells lacking p21” value in assay [1] (Capan-2 cells transfected with p21 siRNA) and in assay [3] (PANC-1 cells transfected with p21 siRNA) were “no inhibitory action” and “no inhibitory effect”, respectively. For the same substance, the decrease of growth was determined as 43% in assay [2] (SCC-4 cells transfected with negative control siRNAs, 96 h); 34.1% in assay [3] (72 hours); 35.5% in assay [3] (96 hours). In addition, in assay [2] (SCC-4 cells transfected with p16 siRNAs), the “effect on growth of cells lacking p16 expression” value was “no effect”. For the same substance, the “Cdk2 kinase activity vs control cells at each respective time point” value in assay [4] (OGF for 15, 18 or 21 hours (FIG. 5)) is “significantly reduced”. In addition, the “decrease in Cdk2 kinase activity compared to control” value in assay [4] (OGF for 15 hours) is recorded as 78%; in assay [4] (OGF for 18 hours), 46%; in assay [4] (OGF for 21 hours), 82%. Moreover, the “cells in S phase” value in assay [5] is listed as 28.0%. For the same substance, the “cells in the G2/M phase” value in assay [5] worked out at 2.9%. The “percentage of cells in the G0/G1 phase” value in assay [5] is reported as 69.1%.

The record behind these values is patent publication US7807368B2, “Cyclin-dependent kinase inhibitors as targets for opiod growth factor treatment” (priority 2006, dated 2010).
